Consider six compounds from article PMC8197361, “Assessing the Interactions of Statins with Human Adenylate Kinase Isoenzyme 1: Fluorescence and Enzyme Kinetic Studies” (International Journal of Molecular Sciences, 2021).

Like-named read-outs stand apart in the source and are kept apart here. Where only a bound is given, the exact number is not on record here.

The target in assay [1] is T1, human adenylate kinase isoenzyme 1 (hAK1) (Homo sapiens, UniProt P00568).
T1 construct: thrombin recognition site (C); 6xHis-tag (C); made in house; host or cells: E. coli BL21-CodonPlus(DE3)-RIL, pET-3a(+)
T1 sequence (P00568 1-194): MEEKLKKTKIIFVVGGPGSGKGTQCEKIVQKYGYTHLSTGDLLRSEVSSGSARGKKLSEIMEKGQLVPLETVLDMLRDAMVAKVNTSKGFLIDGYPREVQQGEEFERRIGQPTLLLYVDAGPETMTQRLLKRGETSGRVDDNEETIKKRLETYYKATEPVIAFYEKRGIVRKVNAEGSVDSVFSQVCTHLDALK
The assay can be described thus: Fluorescence quenching of hAK1 intrinsic (tyrosine) fluorescence by statins, one-site binding model. The following applies: read-out: Kd (dissociation constant). Here is the method:
The fluorescence emission spectra and plots of F versus [L] for the hAK1 quenching process at 20 and 25 °C are presented in Figure S2, while the emission spectra of hAK1, buffer (HEPES-NaOH) and five statins are shown in Figure S3. To analyze the quenching data upon the formation of an hAK1-statin complex, we used the following equation, which assumes a 1:1 stoichiomery:(1) PL/Pt=Pt+La+Kd−(Pt+La+Kd)^2−4PtLa/2Pt where Kd is the dissociation constant, [P]t is the concentration of protein, [L]a is the total concentration of the ligand, and [PL] it the concentration of protein-ligand complex.
The obtained fluorescence data were fitted to the one-site binding model with an applied nonlinear least-squares regression using OriginPro software (Figure 3).
Measurements were recorded in the range of 300–600 nm after excitation at λ = 289 nm at 20, 25 and 37 °C. Stock solutions of all statins were prepared in ethanol. The samples were prepared in 2 mL Eppendorf tubes and contained hAK1 at a concentration of 2 µM alone or with a statin at the following concentrations: 2, 4, 8, 16, 24, 32 and 40 µM, and 25 mM HEPES-NaOH (pH 7.5) was added to each tube, up to 2 mL. Then, the sample was transferred into the quartz cell and the spectrum was recorded. The emission spectra were measured three times. The fluorescence spectra of hAK1 in presence of statins were corrected for the inner filter effect using the following equation [63, 64]:(2) Fcor=Fobs∗ 10^AλEx+AλEm/2 where Fcor is the corrected fluorescence intensity and Fobs is the observed fluorescence intensity, AλEx is the absorption value at the excitation wavelength and AλEm is the absorption value at the emission wavelength. The fluorescence data were fitted by applying a nonlinear least-squares regression using OriginPro software Version 2016 (OriginLab Corporation, Northampton, MA, USA).

Assay [2] has as its target T1, human adenylate kinase isoenzyme 1 (hAK1). The assay can be described thus: Adenylate kinase activity assay and enzyme inhibition studies (RP-HPLC), hAK1. Type of assay: biochemical. The following applies: for IC50: 37 °C. Here is the method:
The reaction mixture for ATP synthesis contained 2 mM MgCl2, 1 mM ADP in 10 mM HEPES-NaOH, pH 7.5. The reaction mixture for ADP synthesis was composed of 2 mM MgCl2, 1 mM AMP and ATP each, in 10 mM HEPES-NaOH, pH 7.5. […] Studies on the statin inhibition mode were performed using varying concentrations of ADP as a substrate (from 0.2 to 1.0 mM) at different fixed concentrations of statin (0, 150, 300 and 450 µM). Adenylate kinase activity measurement was carried out in 50 μL of the reaction mixture for 5–10 min at 37 °C. The reaction was terminated by the addition of 50 μL of 1 M HClO4. After 5 min incubation on ice, samples were centrifuged at 15,000× g for 5 min at 4 °C. Then, 50 μL of the obtained supernatant was neutralized with 25 μL of 1 M KOH and delipidated by shaking with n-heptane (1:5 v/v). The samples were centrifuged as above, and subsequently, adenine nucleotide concentrations were analyzed by the RP-HPLC (reversed-phase high-performance liquid chromatography) method as previously described. Briefly, purine nucleotides were separated in isocratic conditions on the Chromolith Performance RP-18e column, 4.6 mm × 100 mm (Merck, Darmstadt, Germany) using the Shimadzu Prominence LC (Kyoto, Japan) equipped with pump (LC-20AD), autosampler (SIL-20AC), column thermostat (CTO-10AS) and photodiode array detector (SPD-M20A). HPLC system control, data acquisitions and processing were done with LabSolutions software. The samples were eluted using 0.1 M phosphate buffer, pH 7.0 containing 25 mM TBA, 5 mM EDTA and 3% methanol. ADP and ATP produced during the AK-catalyzed reaction were detected at λ = 260 nm based on the retention times of standard nucleotide solutions. The AK enzymatic activity was determined by quantifying the product concentration using correlation coefficients calculated from ADP and ATP calibration curves. One unit (U) of AK activity is defined as the amount of the enzyme that catalyzes the production of 1.0 μmole of ADP or ATP per minute at 37 °C, under the assay conditions specified above. The specific activity of AK was calculated as the number of units per milligram of protein. The Lineweaver–Burk plot was used to present enzyme-substrate reactions with and without statin, where the y-intercept is equivalent to the inverse of Vmax and the x-intercept represents −1/KM. The calculation of the IC50 values was performed using GraphPad Prism 8 Software (San Diego, CA, USA).

The subject of another assay is serum AK. Also noted: method as in PMID 18576946. The following applies: 0.5 mM AMP and 0.8 mM ATP as substrates; cited from earlier work.
Assay [3] has as its system endothelial cell-surface AK. Also noted: method as in PMID 18576946. The following applies: 0.5 mM AMP and 0.8 mM ATP as substrates; cited from earlier work.
Assay [4] addresses T2, adenylate kinase from Geobacillus stearothermophilus (AKst) (Geobacillus stearothermophilus, UniProt P27142).
T2 construct: made in house; host or cells: E. coli BL21-CodonPlus(DE3)-RIL, pET-3a(+)
Briefly: Adenylate kinase activity assay in the presence of statins, AKst (long type AK). It counts as biochemical. The following applies: same drug concentration range as in hAK1 experiments; ADP or ATP and AMP as substrates, 1 mM each. On the procedure:
Next, we measured the enzymatic activity of AKst in the presence of RVS and SVS at the same drug concentration range as in the hAK1 experiments (Figure S4). […] This region has limited accessibility in AKst due to the presence of a markedly bigger LID domain as compared to hAK1, which may consequently prevent the binding of statins to AKst.
The reaction mixture for ATP synthesis contained 2 mM MgCl2, 1 mM ADP in 10 mM HEPES-NaOH, pH 7.5. The reaction mixture for ADP synthesis was composed of 2 mM MgCl2, 1 mM AMP and ATP each, in 10 mM HEPES-NaOH, pH 7.5. […] Studies on the statin inhibition mode were performed using varying concentrations of ADP as a substrate (from 0.2 to 1.0 mM) at different fixed concentrations of statin (0, 150, 300 and 450 µM). […] The samples were centrifuged as above, and subsequently, adenine nucleotide concentrations were analyzed by the RP-HPLC (reversed-phase high-performance liquid chromatography) method as previously described. […] ADP and ATP produced during the AK-catalyzed reaction were detected at λ = 260 nm based on the retention times of standard nucleotide solutions. The AK enzymatic activity was determined by quantifying the product concentration using correlation coefficients calculated from ADP and ATP calibration curves. […] The specific activity of AK was calculated as the number of units per milligram of protein. […]

Setting [5] is: 20 °C, 2 µM hAK1, 25 mM HEPES-NaOH pH 7.5.
Where [6] appears, read: 25 °C, 2 µM hAK1, 25 mM HEPES-NaOH pH 7.5.
[7] abbreviates: 37 °C, 2 µM hAK1, 25 mM HEPES-NaOH pH 7.5.
The mark [8] stands for this setting: 1 mM ADP, ATP synthesis direction, read-out: IC50 (ADP as a Substrate).
Setting [9] is: 1 mM AMP and ATP each, ADP synthesis direction, read-out: IC50 (ATP + AMP as Substrates).

T2 sequence (P27142 whole entry): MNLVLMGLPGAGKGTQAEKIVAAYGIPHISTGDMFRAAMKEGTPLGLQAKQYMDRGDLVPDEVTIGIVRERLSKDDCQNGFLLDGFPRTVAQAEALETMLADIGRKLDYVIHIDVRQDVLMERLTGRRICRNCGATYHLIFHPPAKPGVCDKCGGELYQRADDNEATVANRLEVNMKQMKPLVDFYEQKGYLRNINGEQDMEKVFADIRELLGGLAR

By Kd is commonly meant a measure of binding affinity in units of concentration. By IC50 is commonly meant the point on the concentration scale where inhibition reaches its midpoint. On to `CC(C)c1c(C(=O)Nc2ccccc2)c(-c2ccccc2)c(-c2ccc(F)cc2)n1CC[C@@H](O)C[C@@H](O)CC(=O)O` [AVS, Atorvastatin], for which the dissociation constant (Kd) was 16 ± 2.1 µM in assay [1] (setting [5]), 27.2 ± 6.8 µM in assay [1] (setting [6]) and 29.5 ± 3.7 µM in assay [1] (setting [7]). In addition, the concentration for half-maximal inhibition (IC50) in assay [2] (setting [8]) was 223 ± 34 µM; in assay [2] (setting [9]), 237 ± 31 µM; in assay [2] (ADP or ATP + AMP as substrates, read-out: IC50 values in both directions of the hAK1-catalyzed reaction), above 200 µM.

For `Nc1ncnc2c1ncn2[C@@H]1O[C@H](COP(=O)(O)OP(=O)(O)OP(=O)(O)OP(=O)(O)OP(=O)(O)OC[C@H]2O[C@@H](n3cnc4c(N)ncnc43)[C@H](O)[C@@H]2O)[C@@H](O)[C@H]1O` [Ap5A, P^1,P^5-di(adenosine-5′)pentaphosphate], the half-maximal inhibitory concentration (IC50) with serum AK is 6.3 µM; in assay [3] it was 6 µM.

As for `CC(C)n1c(/C=C/C(O)CC(O)CC(=O)O)c(-c2ccc(F)cc2)c2ccccc21` (stereo not drawn) [FVS, Fluvastatin], the dissociation constant (Kd) in assay [1] (setting [5]) was determined as 17.4 ± 2 µM; in assay [1] (setting [6]) it was 23.1 ± 4 µM; in assay [1] (setting [7]) it was 26.6 ± 5.5 µM. Moreover, the IC50 stood at 126 ± 7 µM in assay [2] (setting [8]) and 156 ± 11 µM in assay [2] (setting [9]).

As to `CC[C@H](C)C(=O)O[C@H]1C[C@H](O)C=C2C=C[C@H](C)[C@H](CC[C@@H](O)C[C@@H](O)CC(=O)O)[C@H]21` [PVS, Pravastatin], the equilibrium dissociation constant (Kd) in assay [1] (setting [5]) stood at 19.4 ± 4.1 µM; in assay [1] (setting [6]) it was 26.4 ± 6.2 µM; in assay [1] (setting [7]), 28.6 ± 8.2 µM. Further, the results for the IC50 in assay [2] (setting [8]) and in assay [2] (setting [9]) were 95 ± 19 µM and 211 ± 33 µM, respectively.

As for `CC(C)c1nc(N(C)S(C)(=O)=O)nc(-c2ccc(F)cc2)c1/C=C/[C@@H](O)C[C@@H](O)CC(=O)O` [RVS, Rosuvastatin], the values for the Kd in assay [1] (setting [5]), in assay [1] (setting [6]) and in assay [1] (setting [7]) were 9.2 ± 1.5 µM, 16.8 ± 1.8 µM and 18.9 ± 3.2 µM, respectively. Besides, the IC50 in assay [2] (setting [8]) is 166 ± 20 µM; in assay [2] (setting [9]), 89 ± 15 µM. Further, in assay [2] (ADP 0.2 to 1.0 mM, fixed statin concentrations 0, 150, 300 and 450 µM), the “hAK1 inhibition mode (Lineweaver-Burk plot)” value is “noncompetitive”. Also, in assay [2] (RVS at a concentration above 200 μM), the hAK1 inhibition was determined as 90%. Also, in assay [4], the “Effect on the AKst enzymatic activity” value is reported as “not found any inhibitory effect”.

`CCC(C)(C)C(=O)O[C@H]1C[C@@H](C)C=C2C=C[C@H](C)[C@H](CC[C@@H]3C[C@@H](O)CC(=O)O3)[C@H]21` [SVS, Simvastatin]: the Kd in assay [1] (setting [5]) stood at 6.6 ± 1.2 µM; in assay [1] (setting [6]), 10.9 ± 1.6 µM; in assay [1] (setting [7]), 15.2 ± 2 µM; in assay [1] (37 °C) it was 15.2 ± 2 µM. Moreover, the IC50 in assay [2] (setting [8]) was found to be 5.5 ± 1.2 µM; in assay [2] (setting [9]), 3.1 ± 0.5 µM. For the same compound, the “Effect on the AKst enzymatic activity” value in assay [4] is given as “not found any inhibitory effect”.
